# Patent publication US11000033B2, “Ketone or oxime compound, and herbicide” (NISSAN CHEMICAL CORPORATION, priority 2014, dated 2021)
# Columns and labels:
# Format in all cases: in vivo
# [1] = system: directly sowed rice plant; assay: Test Example 3: effect on crop by foliage application, Wagner pot (symbol b); settings: for b (directly sowed rice plant) effect on crop grade: application herbicide amount 320 g/ha, Table 24
# In short: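 Alluvial soil in a 1/10000-are Wagner pot was flooded to a water depth of 0.1–0.5 cm. Echinochloa crus-galli var. crus-galli, Leptochloa chinensis, Cyperus difformis and rice were sown into it and grown in a greenhouse at 25–30 °C.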
# [2] = system: Echinochloa oryzacola Vasing.; assay: Test Example 1: herbicidal activity, application before weed generation in submerged conditions (symbol A)
# In short: (§1)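 Greenhouse growth at 25–30 °C lasted 3 weeks after treatment, when each weed was graded 0–5 by herbicidal ratio. Treatment was a diluted emulsion applied to the water surface of 4 cm-submerged alluvial soil on the sowing day.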
# Veronica persica = assay: Test Example 4: herbicidal effect by soil treatment (symbol R)
# In short: (§2)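 Seeds were sown in sterilized diluvial soil, covered with about 1.5 cm of soil, and the soil surface was sprayed with a water-diluted emulsion of the compound at a predetermined rate. Plants grew in a greenhouse at 25° C. to 30° C.; effects were scored visually 3 weeks after application.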
# Digitaria ciliaris = assay: Test Example 5: herbicidal effect by foliage application, plastic box (symbol F); settings: 3 weeks after application
# In short: (§3)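 Greenhouse foliar test: seedlings at 14 days, grown 25° C. to 30° C. in sterilized diluvial soil; compound applied as an aqueous dilution of an emulsion; response read 3 weeks after spraying.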
# Apera spica-venti [3] = assay: Test Example 5: herbicidal effect by foliage application, plastic box (symbol L); settings: 3 weeks after application
# In short: as §3
# Abutilon theophrasti = assay: Test Example 4: herbicidal effect by soil treatment (symbol M)
# In short: as §2
# rapeseed = assay: Test Example 5: effect on crop by foliage application, plastic box (symbol g); settings: 3 weeks after application
# In short: (§4)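 Soil: sterilized diluvial. Container: plastic box, 21 × 13 cm, 7 cm deep. Sowing: spot-like, ~1.5 cm cover. Growth: greenhouse, 25° C. to 30° C.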
# wheat = assay: Test Example 5: effect on crop by foliage application, plastic box (symbol e); settings: 3 weeks after application
# In short: as §4
# Monochoria vaginalis = assay: Test Example 1: herbicidal activity, application before weed generation in submerged conditions (symbol C)
# In short: as §1
# Stellaria media = assay: Test Example 4: herbicidal effect by soil treatment (symbol P)
# In short: as §2
# Setaria viridis = assay: Test Example 4: herbicidal effect by soil treatment (symbol G)
# In short: as §2
# transplanted rice plant = assay: Test Example 1: effect on crop, application before weed generation in submerged conditions (symbol a)
# In short: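 Rice at 2.5 leaf stage transplanted into submerged soil (4 cm depth) sown with three weed species; herbicide applied before weed emergence.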
# Galium spurium = assay: Test Example 4: herbicidal effect by soil treatment (symbol Q)
# From the text: Herbicidal Effect Test by Soil Treatment
# Sterilized diluvial soil was placed in a plastic box having a length of 21 cm, a width of 13 cm, and a depth of 7 cm. Each of the seeds of Digitaria ciliaris, Setaria viridis, Echinochloa crus-galli var. crus-galli, Avena fatua, Alopecurus myosuroides, Lolium multiflorum Lam., Apera spica-venti, Abutilon theophrasti, Amaranthus retroflexus, Chenopodium album, Stellaria media, Galium spurium, Veronica persica, corn, soybean, rice, wheat, beet, and rapeseed was sowed in a spot-like manner and was covered with the soil of a thickness of about 1.5 cm. Subsequently, the emulsion agent of the compound present invention prepared in accordance with Formulation Example 2 was diluted with water so as to be a predetermined herbicide amount and the diluted emulsion agent was uniformly applied to the surface of the soil with a small-size spray. The plastic box was placed in a greenhouse of 25° C. to 30° C. to grow plant. 3 weeks later from the herbicide application, the effect to each plant was investigated in accordance with the criteria of Test Example 1.
# Scirpus juncoides = assay: Test Example 1: herbicidal activity, application before weed generation in submerged conditions (symbol B)
# In short: as §1
# Avena fatua = assay: Test Example 5: herbicidal effect by foliage application, plastic box (symbol I); settings: 3 weeks after application
# In short: as §3
# Lolium multiflorum Lam. = assay: Test Example 5: herbicidal effect by foliage application, plastic box (symbol K); settings: 3 weeks after application
# In short: as §3
# Apera spica-venti [4] = assay: Test Example 4: herbicidal effect by soil treatment (symbol L)
# In short: as §2
# [5] = application herbicide amount 320 g/ha
# [6] = application herbicide amount 192 g/ha
structure (smiles),measurement,setting,value
CON=C(CC1CC(OC(=O)C(C)(C)C)=C(c2c(C)cc(C)cc2OC)C1=O)C1CC1 (mixture of isomers) [13-006],b (directly sowed rice plant) effect on crop grade,[1],5 (Herbicidal ratio of 90% or more (almost completely withered))
same,A (Echinochloa oryzacola Vasing.) herbicidal effect grade,[2]; [5],5 (Herbicidal ratio of 90% or more (almost completely withered))
same,"R: Veronica persica, herbicidal effect grade",Veronica persica; [5],0 (Herbicidal ratio of 5% or lower (almost no effect))
same,"F: Digitaria ciliaris, herbicidal effect grade",Digitaria ciliaris; 320 g/ha,5 (Herbicidal ratio of 90% or more (almost completely withered))
same,"L: Apera spica-venti, herbicidal effect grade",Apera spica-venti [3]; 320 g/ha,5 (Herbicidal ratio of 90% or more (almost completely withered))
same,"M: Abutilon theophrasti, herbicidal effect grade",Abutilon theophrasti; [5],5 (Herbicidal ratio of 90% or more (almost completely withered))
same,"g: rapeseed, effect on crop grade",rapeseed; 320 g/ha,4 (Herbicidal ratio of 70% or higher and lower than 90%)
same,"e: wheat, effect on crop grade",wheat; 320 g/ha,5 (Herbicidal ratio of 90% or more (almost completely withered))
same,C (Monochoria vaginalis) herbicidal effect grade,Monochoria vaginalis; [5],4 (Herbicidal ratio of 70% or higher and lower than 90%)
same,"P: Stellaria media, herbicidal effect grade",Stellaria media; [5],0 (Herbicidal ratio of 5% or lower (almost no effect))
same,"G: Setaria viridis, herbicidal effect grade",Setaria viridis; [5],5 (Herbicidal ratio of 90% or more (almost completely withered))
same,a (transplanted rice plant) effect on crop grade,transplanted rice plant; [5],5 (Herbicidal ratio of 90% or more (almost completely withered))
same,"Q: Galium spurium, herbicidal effect grade",Galium spurium; [5],0 (Herbicidal ratio of 5% or lower (almost no effect))
same,B (Scirpus juncoides) herbicidal effect grade,Scirpus juncoides; [5],5 (Herbicidal ratio of 90% or more (almost completely withered))
same,"I: Avena fatua, herbicidal effect grade",Avena fatua; 320 g/ha,5 (Herbicidal ratio of 90% or more (almost completely withered))
same,"K: Lolium multiflorum Lam., herbicidal effect grade",Lolium multiflorum Lam.; 320 g/ha,5 (Herbicidal ratio of 90% or more (almost completely withered))
CON=C(C)CC1CC(OC(=O)C2CCCO2)=C(c2c(C)cc(C)cc2C)C1=O (centres unmarked) [1-076],"effect on crop b (directly sowed rice plant), grade 0-5",[1]; [6],5 (Herbicidal ratio of 90% or more (almost completely withered))
same,"Herbicidal effect grade, A: Echinochloa oryzacola Vasing.",[2]; [6],4 (Herbicidal ratio of 70% or higher and lower than 90%)
same,"R: Veronica persica, herbicidal effect grade",Veronica persica; 192 g/ha,0 (Herbicidal ratio of 5% or lower (almost no effect))
same,"F: Digitaria ciliaris, herbicidal effect (criteria 0-5)",Digitaria ciliaris; 192 g/ha,5 (Herbicidal ratio of 90% or more (almost completely withered))
same,"L: Apera spica-venti, herbicidal effect (criteria 0-5)",Apera spica-venti [3]; 192 g/ha,5 (Herbicidal ratio of 90% or more (almost completely withered))
same,"M: Abutilon theophrasti, herbicidal effect grade",Abutilon theophrasti; 192 g/ha,4 (Herbicidal ratio of 70% or higher and lower than 90%)
same,"g: rapeseed, effect on crop (criteria 0-5)",rapeseed; 192 g/ha,4 (Herbicidal ratio of 70% or higher and lower than 90%)
same,"e: wheat, effect on crop (criteria 0-5)",wheat; 192 g/ha,5 (Herbicidal ratio of 90% or more (almost completely withered))
same,"L: Apera spica-venti, herbicidal effect grade",Apera spica-venti [4]; 192 g/ha,5 (Herbicidal ratio of 90% or more (almost completely withered))
same,"Herbicidal effect grade, C: Monochoria vaginalis",Monochoria vaginalis; [6],0 (Herbicidal ratio of 5% or lower (almost no effect))
same,"P: Stellaria media, herbicidal effect grade",Stellaria media; 192 g/ha,0 (Herbicidal ratio of 5% or lower (almost no effect))
same,"G: Setaria viridis, herbicidal effect grade",Setaria viridis; 192 g/ha,5 (Herbicidal ratio of 90% or more (almost completely withered))
same,"Effect grade on crop, a: transplanted rice plant",transplanted rice plant; [6],5 (Herbicidal ratio of 90% or more (almost completely withered))
same,"Q: Galium spurium, herbicidal effect grade",Galium spurium; 192 g/ha,0 (Herbicidal ratio of 5% or lower (almost no effect))
same,"Herbicidal effect grade, B: Scirpus juncoides",Scirpus juncoides; [6],4 (Herbicidal ratio of 70% or higher and lower than 90%)
same,"I: Avena fatua, herbicidal effect (criteria 0-5)",Avena fatua; 192 g/ha,5 (Herbicidal ratio of 90% or more (almost completely withered))
same,"K: Lolium multiflorum Lam., herbicidal effect (criteria 0-5)",Lolium multiflorum Lam.; 192 g/ha,5 (Herbicidal ratio of 90% or more (almost completely withered))
CON=C(CC1CC(O)=C(c2c(C)cc(C)cc2C)C1=O)C(F)(F)F (centres unmarked) [1-097],"Herbicidal effect grade, A: Echinochloa oryzacola Vasing.",[2]; [5],3 (Herbicidal ratio of 40% or higher and lower than 70%)
same,"R: Veronica persica, herbicidal effect grade",Veronica persica; 320 g/ha,0 (Herbicidal ratio of 5% or lower (almost no effect))
same,"F: Digitaria ciliaris, herbicidal effect (criteria 0-5)",Digitaria ciliaris; 320 g/ha,5 (Herbicidal ratio of 90% or more (almost completely withered))
same,"L: Apera spica-venti, herbicidal effect (criteria 0-5)",Apera spica-venti [3]; 320 g/ha,4 (Herbicidal ratio of 70% or higher and lower than 90%)
same,"M: Abutilon theophrasti, herbicidal effect grade",Abutilon theophrasti; 320 g/ha,0 (Herbicidal ratio of 5% or lower (almost no effect))
same,"g: rapeseed, effect on crop (criteria 0-5)",rapeseed; 320 g/ha,3 (Herbicidal ratio of 40% or higher and lower than 70%)
same,"e: wheat, effect on crop (criteria 0-5)",wheat; 320 g/ha,2 (Herbicidal ratio of 20% or higher and lower than 40%)
same,"L: Apera spica-venti, herbicidal effect grade",Apera spica-venti [4]; 320 g/ha,0 (Herbicidal ratio of 5% or lower (almost no effect))
same,"Herbicidal effect grade, C: Monochoria vaginalis",Monochoria vaginalis; [5],0 (Herbicidal ratio of 5% or lower (almost no effect))
same,"P: Stellaria media, herbicidal effect grade",Stellaria media; 320 g/ha,0 (Herbicidal ratio of 5% or lower (almost no effect))
same,"G: Setaria viridis, herbicidal effect grade",Setaria viridis; 320 g/ha,2 (Herbicidal ratio of 20% or higher and lower than 40%)
same,"Effect grade on crop, a: transplanted rice plant",transplanted rice plant; [5],3 (Herbicidal ratio of 40% or higher and lower than 70%)
same,"Q: Galium spurium, herbicidal effect grade",Galium spurium; 320 g/ha,0 (Herbicidal ratio of 5% or lower (almost no effect))
same,"Herbicidal effect grade, B: Scirpus juncoides",Scirpus juncoides; [5],0 (Herbicidal ratio of 5% or lower (almost no effect))
same,"I: Avena fatua, herbicidal effect (criteria 0-5)",Avena fatua; 320 g/ha,3 (Herbicidal ratio of 40% or higher and lower than 70%)
same,"K: Lolium multiflorum Lam., herbicidal effect (criteria 0-5)",Lolium multiflorum Lam.; 320 g/ha,5 (Herbicidal ratio of 90% or more (almost completely withered))
Cc1cc(Br)cc(C)c1C1=C(O)CC(CC(=NOCC(F)(F)F)C2CC2)C1=O (centres unmarked) [9-009],b (directly sowed rice plant) effect on crop grade,[1],5 (Herbicidal ratio of 90% or more (almost completely withered))
same,A (Echinochloa oryzacola Vasing.) herbicidal effect grade,[2]; [5],4 (Herbicidal ratio of 70% or higher and lower than 90%)
same,"Herbicidal effect grade, R: Veronica persica",Veronica persica; [5],1 (Herbicidal ratio of 5% or higher and lower than 20%)
same,"F: Digitaria ciliaris, herbicidal effect grade",Digitaria ciliaris; 320 g/ha,4 (Herbicidal ratio of 70% or higher and lower than 90%)
same,"L: Apera spica-venti, herbicidal effect grade",Apera spica-venti [3]; 320 g/ha,5 (Herbicidal ratio of 90% or more (almost completely withered))
same,"Herbicidal effect grade, M: Abutilon theophrasti",Abutilon theophrasti; [5],0 (Herbicidal ratio of 5% or lower (almost no effect))
same,"g: rapeseed, effect on crop grade",rapeseed; 320 g/ha,3 (Herbicidal ratio of 40% or higher and lower than 70%)
same,"e: wheat, effect on crop grade",wheat; 320 g/ha,0 (Herbicidal ratio of 5% or lower (almost no effect))
same,"Herbicidal effect grade, L: Apera spica-venti",Apera spica-venti [4]; [5],1 (Herbicidal ratio of 5% or higher and lower than 20%)
same,C (Monochoria vaginalis) herbicidal effect grade,Monochoria vaginalis; [5],0 (Herbicidal ratio of 5% or lower (almost no effect))
same,"Herbicidal effect grade, G: Setaria viridis",Setaria viridis; [5],1 (Herbicidal ratio of 5% or higher and lower than 20%)
same,a (transplanted rice plant) effect on crop grade,transplanted rice plant; [5],5 (Herbicidal ratio of 90% or more (almost completely withered))
same,"Herbicidal effect grade, Q: Galium spurium",Galium spurium; [5],0 (Herbicidal ratio of 5% or lower (almost no effect))
same,B (Scirpus juncoides) herbicidal effect grade,Scirpus juncoides; [5],0 (Herbicidal ratio of 5% or lower (almost no effect))
same,"I: Avena fatua, herbicidal effect grade",Avena fatua; 320 g/ha,5 (Herbicidal ratio of 90% or more (almost completely withered))
same,"K: Lolium multiflorum Lam., herbicidal effect grade",Lolium multiflorum Lam.; 320 g/ha,5 (Herbicidal ratio of 90% or more (almost completely withered))
